Entries after “also recorded” stand apart in the source; their conditions may differ. Read-outs that look alike come from different tables or passages of the source.
How the values were obtained:
HarmOR27 = molecular target: T1, HarmOR27 (Helicoverpa armigera, UniProt A0A7T3KAG1); experiment: Xenopus oocyte two-electrode voltage clamp, HarmOR27 + Orco; type: cell-based
T1 sequence (A0A7T3KAG1 1-426): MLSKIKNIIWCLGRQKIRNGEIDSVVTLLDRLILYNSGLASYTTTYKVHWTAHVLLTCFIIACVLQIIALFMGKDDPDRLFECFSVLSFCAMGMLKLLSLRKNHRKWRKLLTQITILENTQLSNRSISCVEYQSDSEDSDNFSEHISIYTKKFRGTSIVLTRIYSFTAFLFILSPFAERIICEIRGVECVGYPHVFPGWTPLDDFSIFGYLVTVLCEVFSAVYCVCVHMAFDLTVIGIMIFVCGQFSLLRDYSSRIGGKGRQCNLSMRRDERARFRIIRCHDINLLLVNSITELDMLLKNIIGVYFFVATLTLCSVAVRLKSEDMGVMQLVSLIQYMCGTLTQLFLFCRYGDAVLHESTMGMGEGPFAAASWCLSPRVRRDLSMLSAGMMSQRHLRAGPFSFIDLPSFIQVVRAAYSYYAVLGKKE
Protocol: (§1) In order to expand our analysis on the response properties of HarmORs, we conducted dose–response analyses for the 28 functional HarmORs. […] Six HarmORs (OR3, 22, 48, 50, 56, and 66) could not be activated by any ligand at 10^−5 M. For the other 22 HarmORs, dose–response curves were generated and EC50 values of their major ligands were calculated (fig. 2A and supplementary table S2, Supplementary Material online). The HarmOR repertoire was highly efficient in terpene detection, since the lowest EC50 values were obtained for such compounds. Many of these terpenes have been proposed to be defensive chemicals of plants. […] DMNT is also one of the oviposition deterring compounds found in larval frass of some Lepidoptera species such as S. littoralis ([Anderson et al. 1993]).
(§2) Functional characterization of individual ORs was performed by heterologous expression in Xenopus oocytes combined with a two-electrode voltage-clamp system ([Wang et al. 2010]). Briefly, the full-length gene of each OR and Orco were subcloned into the eukaryotic expression vector pT7TS. cRNAs were generated from linearized expression vectors using the mMESSAGE mMACHINE T7 kit (Ambion, Austin, TX). Then, the cRNA mixture of ORx and Orco (27.6 ng each) was injected (Nanoliter 2010, WPI Inc., Sarasota, FL) into oocytes (stage V–VII). The respective Orcos of different species were used for functional studies of OR42 orthologs except for the four butterfly species (V. tameamea, P. xuthus, D. plexippus, and P. rapae), in which we used the Orco from P. xuthus. After incubation in nutrient solution at 18 °C for 3–5 days, the response profile of each oocyte to multiple plant odorants was recorded via a two-electrode voltage clamp (OC-725C oocyte clamp, Warner Instruments, Hamden, CT) at a holding potential of −80 mV. Data were acquired by using a Digidata 1440 A and were analyzed by pCLAMP 10.2 software (Axon Instruments Inc., Union City, CA).
(§3) Stock solutions of each odorant were prepared at 1 M using DMSO as a solvent, and each odorant was diluted in 1× Ringer’s solution to the indicated concentrations for electrophysiological recording. For functional screening of each HarmOR, a panel of 67 odorants belonging to three types of chemical classes: terpenes, aromatics, and aliphatics (short-chain fatty acid) were used (supplementary table S1, Supplementary Material online). For functional studies of OR42 orthologs from different species, six odorants including PAA, benzaldehyde, (E)-2-hexen-1-al, cinnamaldehyde, 2-phenylethanol, and heptanal were used.

HarmOR19 = molecular target: T2, HarmOR19 (Helicoverpa armigera, UniProt A0A7T3N0J7); experiment: Xenopus oocyte two-electrode voltage clamp, HarmOR19 + Orco; type: cell-based; details: dose response in oocytes, unit M
T2 sequence (A0A7T3N0J7 1-402): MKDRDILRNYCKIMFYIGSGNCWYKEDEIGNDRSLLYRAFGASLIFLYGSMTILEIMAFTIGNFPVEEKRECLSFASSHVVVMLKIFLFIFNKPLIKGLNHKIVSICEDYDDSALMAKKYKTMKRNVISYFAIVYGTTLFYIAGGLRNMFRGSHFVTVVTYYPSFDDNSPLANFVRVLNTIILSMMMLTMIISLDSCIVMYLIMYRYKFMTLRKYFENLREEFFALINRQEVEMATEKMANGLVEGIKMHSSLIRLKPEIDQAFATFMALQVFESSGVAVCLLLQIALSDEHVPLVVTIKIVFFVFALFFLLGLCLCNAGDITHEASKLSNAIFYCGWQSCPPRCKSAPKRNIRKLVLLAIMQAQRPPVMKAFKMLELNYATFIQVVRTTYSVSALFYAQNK
Protocol: as §1
as §2, with “CA). […]” for “CA).”

HarmOR67 = HarmOR67 (Helicoverpa armigera, UniProt A0A7T3KAH1); experiment: Xenopus oocyte two-electrode voltage clamp, HarmOR67 + Orco; type: cell-based; details: dose response in oocytes, unit M
HarmOR67, sequence (A0A7T3KAH1 entry or part of it): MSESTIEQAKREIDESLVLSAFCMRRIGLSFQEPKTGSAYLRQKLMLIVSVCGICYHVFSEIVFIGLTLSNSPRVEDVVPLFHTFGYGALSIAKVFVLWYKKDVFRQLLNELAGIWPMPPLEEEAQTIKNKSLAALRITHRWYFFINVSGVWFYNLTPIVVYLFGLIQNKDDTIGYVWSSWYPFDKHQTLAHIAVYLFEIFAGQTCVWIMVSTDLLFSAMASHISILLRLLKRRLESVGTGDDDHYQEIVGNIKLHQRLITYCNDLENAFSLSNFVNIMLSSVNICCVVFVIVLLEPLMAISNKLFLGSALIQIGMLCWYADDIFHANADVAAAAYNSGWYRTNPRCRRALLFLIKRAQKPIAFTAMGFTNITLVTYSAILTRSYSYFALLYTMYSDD
Protocol: as §1
as §2, with “CA). […]” for “CA).”

HarmOR31 = HarmOR31 (Helicoverpa armigera, UniProt A0A7T3N2E9); experiment: Xenopus oocyte two-electrode voltage clamp, HarmOR31 + Orco; type: cell-based
HarmOR31, sequence (A0A7T3N2E9 entry or part of it): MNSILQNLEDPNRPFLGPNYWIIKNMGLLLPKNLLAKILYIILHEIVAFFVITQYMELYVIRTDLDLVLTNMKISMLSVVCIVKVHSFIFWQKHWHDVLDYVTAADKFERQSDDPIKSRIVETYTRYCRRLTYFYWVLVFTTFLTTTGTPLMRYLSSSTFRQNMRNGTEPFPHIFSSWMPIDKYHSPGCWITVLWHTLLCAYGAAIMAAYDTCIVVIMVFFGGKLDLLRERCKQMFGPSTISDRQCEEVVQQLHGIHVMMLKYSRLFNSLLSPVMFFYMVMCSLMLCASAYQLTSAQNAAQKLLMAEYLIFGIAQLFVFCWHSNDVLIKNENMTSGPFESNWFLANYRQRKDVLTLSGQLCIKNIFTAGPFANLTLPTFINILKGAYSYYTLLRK
Source text: In order to expand our analysis on the response properties of HarmORs, we conducted dose–response analyses for the 28 functional HarmORs. […] Many of these terpenes have been proposed to be defensive chemicals of plants.
Briefly, the full-length gene of each OR and Orco were subcloned into the eukaryotic expression vector pT7TS. cRNAs were generated from linearized expression vectors using the mMESSAGE mMACHINE T7 kit (Ambion, Austin, TX). […] The respective Orcos of different species were used for functional studies of OR42 orthologs except for the four butterfly species (V. tameamea, P. xuthus, D. plexippus, and P. rapae), in which we used the Orco from P. xuthus.
as §3

HarmOR43 = molecular target: T3, HarmOR43 (Helicoverpa armigera, UniProt A0A7T3KAF8); experiment: Xenopus oocyte two-electrode voltage clamp, HarmOR43 + Orco; type: cell-based; details: dose response in oocytes, unit M
T3 sequence (A0A7T3KAF8 1-415): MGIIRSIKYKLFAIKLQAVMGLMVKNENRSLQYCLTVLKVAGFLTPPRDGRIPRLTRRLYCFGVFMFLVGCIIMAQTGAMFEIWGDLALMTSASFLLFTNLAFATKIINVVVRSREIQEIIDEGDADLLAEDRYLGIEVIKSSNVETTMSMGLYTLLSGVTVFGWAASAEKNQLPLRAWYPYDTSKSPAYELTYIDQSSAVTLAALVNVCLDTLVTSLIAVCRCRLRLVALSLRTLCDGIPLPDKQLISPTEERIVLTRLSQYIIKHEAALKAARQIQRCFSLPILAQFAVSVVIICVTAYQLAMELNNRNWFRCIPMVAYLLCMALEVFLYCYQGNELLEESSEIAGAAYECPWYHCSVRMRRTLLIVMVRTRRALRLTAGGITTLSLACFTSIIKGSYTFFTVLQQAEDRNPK
Protocol: as §1
as §2, with “CA). […]” for “CA).”

HarmOR59 = HarmOR59 (Helicoverpa armigera, UniProt A0A7T3KAU6); experiment: Xenopus oocyte two-electrode voltage clamp, HarmOR59 + Orco; type: cell-based
HarmOR59, sequence (A0A7T3KAU6 entry or part of it): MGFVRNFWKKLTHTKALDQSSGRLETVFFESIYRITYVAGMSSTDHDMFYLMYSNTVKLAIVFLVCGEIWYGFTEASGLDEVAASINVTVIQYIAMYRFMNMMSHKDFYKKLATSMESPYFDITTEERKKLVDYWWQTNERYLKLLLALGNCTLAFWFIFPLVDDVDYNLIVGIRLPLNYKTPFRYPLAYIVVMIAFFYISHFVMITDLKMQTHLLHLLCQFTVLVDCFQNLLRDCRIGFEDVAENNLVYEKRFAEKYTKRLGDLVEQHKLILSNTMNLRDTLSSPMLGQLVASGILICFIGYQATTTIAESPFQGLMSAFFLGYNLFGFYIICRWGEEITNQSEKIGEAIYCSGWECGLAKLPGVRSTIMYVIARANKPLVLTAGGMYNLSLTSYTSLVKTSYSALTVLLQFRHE
Protocol: as §1, §2, §3

EsemOR19 = experiment: Xenopus oocyte voltage clamp of EsemOR19; type: cell-based, Eriocrania semipurpurella; details: 10^−4 M
Source text: We also examined the response profile of EsemOR19 from E. semipurpurella, an OR that falls close to the HarmOR42-defined clade but that is not considered as a HarmOR42 ortholog. […] We also characterized the function of RnubOR13 from R. nubila (Trichoptera), a species from a sister order of Lepidoptera. […] Unfortunately, the putative E. semipurpurella OR that would consist of EsemOR34 + 35 and that falls at the base of the HarmOR42 clade could not be tested as it is incomplete.
Full-length coding sequences of 45 ORs (including Orco) of H. armigera, and OR42 and Orco orthologs in B. mori, H. assulta, G. molesta, and M. separate were amplified from the antennal cDNA of each species adults by PCR with specific primer pairs of each gene. […]
(§4) Functional characterization of individual ORs was performed by heterologous expression in Xenopus oocytes combined with a two-electrode voltage-clamp system ([Wang et al. 2010]). […] After incubation in nutrient solution at 18 °C for 3–5 days, the response profile of each oocyte to multiple plant odorants was recorded via a two-electrode voltage clamp (OC-725C oocyte clamp, Warner Instruments, Hamden, CT) at a holding potential of −80 mV. Data were acquired by using a Digidata 1440 A and were analyzed by pCLAMP 10.2 software (Axon Instruments Inc., Union City, CA). […]

[1] = tested on: HarmOR42 orthologs from 11 lepidopteran species; experiment: Xenopus oocyte voltage clamp of HarmOR42 orthologs, six-odorant screen; type: cell-based; details: six compounds at 10^−4 M; 11 species
Source text: We gathered additional experimental evidence to support this conservation of a PAA-sensing function by performing in vitro functional characterization of HarmOR42 orthologs from 11 lepidopteran species belonging to eight families (fig. 5B). […] It should be noted that the species studied here included three Noctuidae species (H. armigera, H. assulta, and Mythimna separata), four moths from Bombycidae (Bombyx mori), Crambidae (Chilo suppressalis), Sphingidae (Manduca sexta), and Tortricidae (Grapholitha molesta) ([Mitter et al. 2017]; [Kawahara et al. 2019]), and four diurnal butterfly species from diverse families (Vanessa tameamea, Papilio xuthus, Danaus plexippus, and Pieris rapae) (fig. 5B). […]
as §4

[2] = tested on: H. armigera moth antennae; experiment: Electroantennography (EAG), wild-type vs HarmOR42 knock-out moths; type: in vivo, Helicoverpa armigera; details: single odorants, 1 μg
Source text: We next conducted a loss-of-function study by generating a HarmOR42-lacking H. armigera strain by CRISPR/Cas9 targeting the first coding exon. Homozygous mutants were obtained with a large segment deletion of 203 bp and a 6-bp nonhomologous insertion in the genome (fig. 6B), introducing a premature stop codon in the coding sequence. […] The most likely hypothesis is that HarmOR42 is not the major receptor for sensing this compound in H. armigera. As a control, we tested the response of male moths to the sex pheromone component Z11-16: Ald that is not a ligand of HarmOR42. As expected, we observed no difference between the EAG responses of mutant and wild-type moths to this compound.
The antennae of 2- to 3-day-old virgin male and female moths were cut at the base of the flagellum. After removing the tip, one antenna was inserted between two glass electrodes filled with 0.1 M KCl solution. In each test, a 10-μl solution of each odorant was added onto a piece of filter paper (0.5 cm × 0.5 cm) and then inserted into a Pasteur pipette. About 100 ng/μl stock solutions of individual odorants and different doses of the mixture IAC were prepared with paraffin oil. A continuous airflow of 30 ml/s was produced by a stimulus controller (CS-55, Syntech, Kirchzarten, Germany). Odor stimulation was controlled by a puff of purified air (0.2 s at 10 ml/s airflow) from the CS-55. EAG signals were amplified with a 10× AC/DC headstage preamplifier (Syntech) and further acquired with an Intelligent Data Acquisition Controller (IDAC-4-USB, Syntech) ([Cao et al. 2016]). The signals were recorded, monitored, and analyzed using Syntech EAG-software (Syntech, Germany). The EAG response values for each compound were calculated by subtracting the value of the same antennae corresponding to a solvent blank of paraffin oil.

HarmOR42 = HarmOR42 (Helicoverpa armigera, UniProt A0A7T3KAF6); experiment: Xenopus oocyte two-electrode voltage clamp, HarmOR42 + Orco; type: cell-based; details: 67 odorants at 10^−4 M
HarmOR42, sequence (A0A7T3KAF6 entry or part of it): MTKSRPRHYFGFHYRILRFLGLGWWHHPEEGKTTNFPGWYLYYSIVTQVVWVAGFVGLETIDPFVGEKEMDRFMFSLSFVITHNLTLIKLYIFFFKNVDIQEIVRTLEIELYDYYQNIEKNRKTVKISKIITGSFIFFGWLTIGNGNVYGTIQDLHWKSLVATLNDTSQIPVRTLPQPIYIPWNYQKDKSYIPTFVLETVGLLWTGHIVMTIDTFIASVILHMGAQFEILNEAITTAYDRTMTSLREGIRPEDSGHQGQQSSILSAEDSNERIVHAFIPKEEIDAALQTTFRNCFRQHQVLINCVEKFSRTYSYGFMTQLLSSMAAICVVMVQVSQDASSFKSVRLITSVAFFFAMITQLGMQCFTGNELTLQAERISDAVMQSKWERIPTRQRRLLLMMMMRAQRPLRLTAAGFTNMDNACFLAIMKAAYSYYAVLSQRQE
Source text: In preliminary screening, we used a high dosage (10^−4 M) of odorants. […] Most functional ORs responded robustly to multiple odorants. The strongest response (up to ∼6,000 nanoampere, nA) we detected was that of HarmOR42 toward the aromatic compound PAA. Further, the response profiles of the 28 HarmORs appeared to be highly differentiated, with no apparent overlap in their tuning spectra (with the exception of HarmOR12 and 36) according to functional cluster analysis (fig. 1A).
as §1, §2, §3

Compound: CCCCOC(=O)c1ccccc1O [Butyl salicylate]
- response of HarmOR27 (HarmOR27; odorant 10^−4 M): maximal response
- response of HarmOR27 (HarmOR27; odorant 10^−5 M): failed to evoke any current
- EC50 (HarmOR19): 402 µM

Compound: CCCCCCCCO [1-Octanol]
- EC50 (HarmOR67): 33.1 µM
- EC50 (HarmOR31; HarmOR31, dose response in oocytes, unit M, read-out: EC50): 96.1 µM

Compound: CCOC(=O)c1ccccc1 [Ethyl benzoate]
- EC50 (HarmOR27): 68.7 µM
- EC50 (HarmOR19): 60.2 µM
- EC50 (HarmOR31): 13.2 µM

Compound: COC(=O)c1ccccc1 [Methyl benzoate]
- EC50 (HarmOR43): 15.5 µM
- EC50 (HarmOR27): 13.1 µM

Compound: CCCCCCCO [1-Heptanol]
- EC50 (HarmOR67): 218 µM

Compound: O=C/C=C/c1ccccc1 [Cinnamaldehyde]
- EC50 (HarmOR59): 1.72 µM
- response of EsemOR19 (EsemOR19): very weak current; also recorded: responded
- ligand tuning of HarmOR42 orthologs [1]: minor ligands
- EAG response of HarmOR42 knock-out mutants compared with wild-type moths [2]: significantly decreased
- ligand tuning of HarmOR42 (HarmOR42): minor ligands

From PMC8042770, “Odorant Receptors for Detecting Flowering Plant Cues Are Functionally Conserved across Moths and Butterflies” (Molecular Biology and Evolution, 2020)
